From publication PMC11012124, “Synthesis of Novel Triazine-Based Chalcones and 8,9-dihydro-7H-pyrimido[4,5-b][1,4]diazepines as Potential Leads in the Search of Anticancer, Antibacterial and Antifungal Agents” (International Journal of Molecular Sciences, 2024)

Legend:
60 cancer cell lines = test: NCI-60 one-dose screen (10 μM); format: cell-based; conditions: Homo sapiens; one dose of 10 μM, mean over 60 cancer cell lines; read-out: Mean Growth Percent (MGP)
Text: Additionally, the mean of the growth percentages (MGP) of each compound against all the 60 cancer cell lines is also reported, which is used as one of the selection criteria to continue with tests at five concentration doses.

[1] = Hemolytic activity, spectrophotometric; format: cell-based, human; conditions: human, human red blood cells (huRBC), 5% hematocrit, 200 μg/mL, 37 °C
MOLT-4 = test: cells; conditions: Homo sapiens, MOLT-4, 48 h; for CC50: read-out: LC50
RPMI-8226 = test: cells; conditions: Homo sapiens, RPMI-8226, 48 h; for CC50: read-out: LC50
A549/ATCC = test: cells; conditions: Homo sapiens, A549, 48 h; for CC50: read-out: LC50
EKVX = test: cells; conditions: Homo sapiens, 48 h; for CC50: read-out: LC50
HOP-62 = test: cells; conditions: Homo sapiens, HOP-62, 48 h; for CC50: read-out: LC50
NCI-H322M = test: cells; conditions: Homo sapiens, 48 h; for CC50: read-out: LC50
NCI-H522 = test: cells; conditions: Homo sapiens, NCI-H522, 48 h; for CC50: read-out: LC50
COLO 205 = test: cells; conditions: Homo sapiens, COLO 205, 48 h; for CC50: read-out: LC50
HCC-2998 = test: cells; conditions: Homo sapiens, HCC 2998, 48 h; for CC50: read-out: LC50
HCT-116 = test: cells; conditions: Homo sapiens, HCT-116, 48 h; for CC50: read-out: LC50
HCT-15 = test: cells; conditions: Homo sapiens, HCT-15, 48 h; for CC50: read-out: LC50
HT29 = test: cells; conditions: Homo sapiens, HT-29, 48 h; for CC50: read-out: LC50
KM12 = test: cells; conditions: Homo sapiens, KM12, 48 h; for CC50: read-out: LC50
SW-620 = test: cells; conditions: Homo sapiens, SW-620, 48 h; for CC50: read-out: LC50
SF-539 = test: cells; conditions: Homo sapiens, SF-539, 48 h; for CC50: read-out: LC50, SF-539, 48 h
SNB-19 = test: cells; conditions: Homo sapiens, SNB-19, 48 h; for CC50: read-out: LC50
SNB-75 = test: cells; conditions: Homo sapiens, SNB-75, 48 h; for CC50: read-out: LC50
U251 = test: cells; conditions: Homo sapiens, U-251, 48 h; for GI50: U251, 48 h; for CC50: read-out: LC50
MALME-3M = test: cells; conditions: Homo sapiens, 48 h; for CC50: read-out: LC50
M14 = test: cells; conditions: Homo sapiens, M14, 48 h; for CC50: read-out: LC50
SK-MEL-28 = test: cells; conditions: Homo sapiens, SK-MEL-28, 48 h; for CC50: read-out: LC50
UACC-62 = test: cells; conditions: Homo sapiens, UACC-62, 48 h; for CC50: read-out: LC50
OVCAR-8 = test: cells; conditions: Homo sapiens, OVCAR-8, 48 h; for CC50: read-out: LC50
SK-OV-3 = test: cells; conditions: Homo sapiens, SK-OV-3, 48 h; for CC50: read-out: LC50
ACHN = test: cells; conditions: Homo sapiens, 48 h; for CC50: read-out: LC50
CAKI-1 = test: cells; conditions: Homo sapiens, CAKI-1, 48 h; for CC50: read-out: LC50
UO-31 = test: cells; conditions: Homo sapiens, UO-31, 48 h; for CC50: read-out: LC50
PC-3 = test: cells; conditions: Homo sapiens, PC-3, 48 h; for CC50: read-out: LC50
DU-145 = test: cells; conditions: Homo sapiens, DU-145, 48 h; for CC50: read-out: LC50
MDA-MB-231/ATCC = test: cells; conditions: Homo sapiens, MDA-MB-231, 48 h; for CC50: read-out: LC50
HS 578T = test: cells; conditions: Homo sapiens, 48 h; for CC50: read-out: LC50
BT-549 = test: cells; conditions: Homo sapiens, BT-549, 48 h; for CC50: read-out: LC50
T-47D = test: cells; conditions: Homo sapiens, T47D, 48 h; for CC50: read-out: LC50
MDA-MB-468 = test: cells; conditions: Homo sapiens, MDA-MB-468, 48 h; for CC50: read-out: LC50

COc1cc(/C=C/C(=O)c2ccccc2)ccc1Oc1nc(Nc2ccc(F)cc2)nc(N(C)C)n1 [21a]
activity at 10 µM (60 cancer cell lines): 24.6% | hemolysis at 24 h, 200 µg/mL [1]: 2% | GI50 (MOLT-4): 2.56 µM | CC50 (MOLT-4): > 100 µM | GI50 (RPMI-8226): 2.83 µM | CC50 (RPMI-8226): > 100 µM | GI50 (A549/ATCC): 11.7 µM | CC50 (A549/ATCC): > 100 µM | GI50 (EKVX): 4.73 µM | CC50 (EKVX): > 100 µM | GI50 (HOP-62): 26.6 µM | CC50 (HOP-62): > 100 µM | GI50 (NCI-H322M): 28.7 µM | CC50 (NCI-H322M): > 100 µM | GI50 (NCI-H522): 5.15 µM | CC50 (NCI-H522): > 100 µM | GI50 (COLO 205): 15.1 µM | CC50 (COLO 205): > 100 µM | GI50 (HCC-2998): 12.9 µM | CC50 (HCC-2998): > 100 µM | GI50 (HCT-116): 3.21 µM | CC50 (HCT-116): 45.5 µM | GI50 (HCT-15): 3.31 µM | CC50 (HCT-15): 36.2 µM | GI50 (HT29): 4.36 µM | CC50 (HT29): 59.7 µM | GI50 (KM12): 14.9 µM | CC50 (KM12): > 100 µM | GI50 (SW-620): 1.81 µM | CC50 (SW-620): 8.7 µM | GI50 (SF-539): 13.8 µM | CC50 (SF-539): 51.7 µM | GI50 (SNB-19): 10.2 µM | CC50 (SNB-19): 74.9 µM | GI50 (SNB-75): 4.7 µM | CC50 (SNB-75): > 100 µM | GI50 (U251): 2.84 µM | CC50 (U251): 60.6 µM | GI50 (MALME-3M): 15.9 µM | CC50 (MALME-3M): 98.8 µM | GI50 (M14): 13 µM | CC50 (M14): > 100 µM | GI50 (SK-MEL-28): 12.2 µM | CC50 (SK-MEL-28): 84.6 µM | GI50 (UACC-62): 4.99 µM | CC50 (UACC-62): 79.4 µM | GI50 (OVCAR-8): 5.9 µM | CC50 (OVCAR-8): 97.6 µM | GI50 (SK-OV-3): 48.6 µM | CC50 (SK-OV-3): > 100 µM | GI50 (ACHN): 8.29 µM | CC50 (ACHN): > 100 µM | GI50 (CAKI-1): 5.72 µM | CC50 (CAKI-1): > 100 µM | GI50 (UO-31): 4.4 µM | CC50 (UO-31): > 100 µM | GI50 (PC-3): 10 µM | CC50 (PC-3): > 100 µM | GI50 (DU-145): 27.3 µM | CC50 (DU-145): > 100 µM | GI50 (MDA-MB-231/ATCC): 6.92 µM | CC50 (MDA-MB-231/ATCC): 56.1 µM | GI50 (HS 578T): 5.44 µM | CC50 (HS 578T): > 100 µM | GI50 (BT-549): 12 µM | CC50 (BT-549): 68.1 µM | GI50 (T-47D): 3.36 µM | CC50 (T-47D): > 100 µM | GI50 (MDA-MB-468): 3.21 µM | CC50 (MDA-MB-468): > 100 µM

COc1cc(/C=C/C(=O)c2ccc(C)cc2)ccc1Oc1nc(Nc2ccc(F)cc2)nc(N(C)C)n1 [21b]
activity at 10 µM (60 cancer cell lines): 39% | hemolysis at 24 h, 200 µg/mL [1]: 13% | GI50 (MOLT-4): 2.8 µM | CC50 (MOLT-4): > 100 µM | GI50 (RPMI-8226): 3 µM | CC50 (RPMI-8226): > 100 µM | GI50 (A549/ATCC): 45.8 µM | CC50 (A549/ATCC): > 100 µM | GI50 (EKVX): 6.71 µM | CC50 (EKVX): > 100 µM | GI50 (HOP-62): 32.2 µM | CC50 (HOP-62): > 100 µM | GI50 (NCI-H322M): 51.9 µM | CC50 (NCI-H322M): > 100 µM | GI50 (NCI-H522): 9.76 µM | CC50 (NCI-H522): > 100 µM | GI50 (COLO 205): 41.7 µM | CC50 (COLO 205): > 100 µM | GI50 (HCC-2998): 20.5 µM | CC50 (HCC-2998): > 100 µM | GI50 (HCT-116): 2.28 µM | CC50 (HCT-116): 24.4 µM | GI50 (HCT-15): 4.73 µM | CC50 (HCT-15): 43.4 µM | GI50 (HT29): 8.15 µM | CC50 (HT29): > 100 µM | GI50 (KM12): 19.3 µM | CC50 (KM12): > 100 µM | GI50 (SW-620): 2.36 µM | CC50 (SW-620): 20.1 µM | GI50 (SF-539): 7.64 µM | CC50 (SF-539): 44.9 µM | GI50 (SNB-19): 11.1 µM | CC50 (SNB-19): 67.3 µM | GI50 (SNB-75): 15.4 µM | CC50 (SNB-75): > 100 µM | GI50 (U251): 3.32 µM | CC50 (U251): > 100 µM | GI50 (MALME-3M): 15.4 µM | CC50 (MALME-3M): 72.3 µM | GI50 (M14): 14.7 µM | CC50 (M14): > 100 µM | GI50 (SK-MEL-28): 12.3 µM | CC50 (SK-MEL-28): 79.6 µM | GI50 (UACC-62): 10.1 µM | CC50 (UACC-62): > 100 µM | GI50 (OVCAR-8): 7.19 µM | CC50 (OVCAR-8): > 100 µM | GI50 (SK-OV-3): 48.9 µM | CC50 (SK-OV-3): > 100 µM | GI50 (ACHN): 9.58 µM | CC50 (ACHN): 96.5 µM | GI50 (CAKI-1): 6.43 µM | CC50 (CAKI-1): > 100 µM | GI50 (UO-31): 4.2 µM | CC50 (UO-31): > 100 µM | GI50 (PC-3): 8.85 µM | CC50 (PC-3): > 100 µM | GI50 (DU-145): 25.8 µM | CC50 (DU-145): > 100 µM | GI50 (MDA-MB-231/ATCC): 5.24 µM | CC50 (MDA-MB-231/ATCC): 50.8 µM | GI50 (HS 578T): 7.24 µM | CC50 (HS 578T): > 100 µM | GI50 (BT-549): 6.27 µM | CC50 (BT-549): 91.3 µM | GI50 (T-47D): 3.57 µM | CC50 (T-47D): > 100 µM | GI50 (MDA-MB-468): 4.64 µM | CC50 (MDA-MB-468): > 100 µM
